Experimental data taken from the supplement of paper PMC11208160.

Experiment: recombinant barcode read abundance after kanamycin selection (control-corrected) (log10(CPM+1)); higher = more efficient recombination; sequences stand for … in AGTGCAGAGAAAATCGGCCAGTTTTCTCTGCCTGCAGTCCGCATGCCGT…AGATTTATGCAGCGGACTGCCTTTCTCCCAAAGTGATAAACCGGACAGTATCATGGACCGGTTTTCCCGGTAATCCGTATTTGCAAGGTTGGTTTCACT; site = the 11-nt target
In short: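 Targets and IS621 bridge RNA target-binding loops were paired in oligos, each with a promoter, a barcode and the J23119-driven first 104 bridge RNA bases. A vector carrying the remaining 73 bp and a T7-inducible recombinase received these by Gibson cloning, and the pool was co-electroporated into E. coli with a donor plasmid. Duplicate plates contained chloramphenicol/ampicillin LB agar (control) or chloramphenicol/ampicillin/kanamycin with 0.1 mM IPTG. Recombination efficiency comes from averaged, control-corrected counts per million of recombinant-junction barcodes, reported as log10(CPM+1).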
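Further: IS621 recombinase and bridge RNA in Escherichia coli cells.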

Sequence	recombinant barcode read abundance (log10)
CTTAAATCTTGGGTTCTAACCTGTTGCCT (site CTTAAATCTAG)	0.0558
CTTAAATCTTGGGTTCTAACCTGTTGCCT (site CTTCAATCTAG)	0.0867
CTTAAATCTTGGGTTCTAACCTGTTGCCT (site CTTGAATCTAG)	0.24
CTTAAATCTTGGGTTCTAACCTGTTGCCT (site CTTTAATCTAG)	0.165
CTTACCGCTTGGGTTCTAACCTGTTGCCT (site CTTACAGCTAG)	0.137
CTTACCGCTTGGGTTCTAACCTGTTGCCT (site CTTACCGCTAG)	1.19
CTTACCGCTTGGGTTCTAACCTGTTGCCT (site CTTACGGCTAG)	0.235
CTTACCGCTTGGGTTCTAACCTGTTGCCT (site CTTACTGCTAG)	0.273
CTTAGCTCTTGGGTTCTAACCTGTTGCCT (site CGTAGGTCTAG)	0.009
CTTAGCTCTTGGGTTCTAACCTGTTGCCT (site CTTAGCTCTAG)	1.15
CTTAGGACTTGGGTTCTAACCTGTTGCCC (site CTTAGGACTAG)	0.374
CTTAGGACTTGGGTTCTAACCTGTTGCCC (site CTTAGGACTCG)	0.283
CTTAGGACTTGGGTTCTAACCTGTTGCCC (site CTTAGGACTGG)	0.404
CTTAGGACTTGGGTTCTAACCTGTTGCCC (site CTTAGGACTTG)	0.00992
CTTCACGCTTGGGTTCTAACCTGTTGCCT (site CTTCACACTAT)	0.177
CTTCACGCTTGGGTTCTAACCTGTTGCCT (site CTTCACGCTAG)	1.21
CTTCAGCCTTGGGTTCTAACCTGTTGCCT (site CTTCAACCTAG)	0.612
CTTCAGCCTTGGGTTCTAACCTGTTGCCT (site CTTCACCCTAG)	0.259
CTTCAGCCTTGGGTTCTAACCTGTTGCCT (site CTTCAGCCTAG)	0.789
CTTCAGCCTTGGGTTCTAACCTGTTGCCT (site CTTCATCCTAG)	0
CTTCAGGCTTGGGTTCTAACCTGTTGCCT (site CTTCAGGCTAG)	0.594
CTTCAGGCTTGGGTTCTAACCTGTTGCCT (site CTTGAGACTAG)	0.0551

Sequence	recombinant barcode read abundance (log10)
CTTCCTTCTTGGGTTCTAACCTGTTGCCT (site CTCCCTTCTAA)	0.128
CTTCCTTCTTGGGTTCTAACCTGTTGCCT (site CTTCCTTCTAG)	0.543
CTTCGAGCTTGGGTTCTAACCTGTTGCCG (site CTTCGAGCTCA)	0.112
CTTCGAGCTTGGGTTCTAACCTGTTGCCG (site CTTCGAGCTCC)	0.0907
CTTCGAGCTTGGGTTCTAACCTGTTGCCG (site CTTCGAGCTCG)	0.873
CTTCGAGCTTGGGTTCTAACCTGTTGCCG (site CTTCGAGCTCT)	0.138
CTTGAGCCTTGGGTTCTAACCTGTTGCGT (site CTTGAGCCTAC)	2.87
CTTGAGCCTTGGGTTCTAACCTGTTGCGT (site GTTGAGTCTAC)	0.0339
CTTGGGCCTTGGGTTCTAACCTGTTGCGG (site CTTGGGCCTCC)	2.67
CTTGGGCCTTGGGTTCTAACCTGTTGCGG (site GTTGGGGCTCC)	0.0414
CTTGGGTCTTGGGTTCTAACCTGTTGCCT (site CTTGGGTCTAG)	0.998
CTTGGGTCTTGGGTTCTAACCTGTTGCCT (site CTTGGTTCTAG)	0.122
CTTTGTACTTGGGTTCTAACCTGTTGCCT (site CCTTGTACTAG)	0.265
CTTTGTACTTGGGTTCTAACCTGTTGCCT (site CTTTGTACTAG)	0.419
GAAAACTCTTGGGTTCTAACCTGTTGCCT (site AGGTCTACTCC)	0.104
GAAAACTCTTGGGTTCTAACCTGTTGCCT (site GAAAACTCTAG)	1.11
GAAAAGTCTTGGGTTCTAACCTGTTGCTG (site CTCGCTCCTTG)	0.185
GAAAAGTCTTGGGTTCTAACCTGTTGCTG (site GAAAAGTCTCA)	1.28
GAAAATCCTTGGGTTCTAACCTGTTGCCT (site GAAAATCCTAG)	0.304
GAAAATCCTTGGGTTCTAACCTGTTGCCT (site GAAACTCCTAG)	0.0115
GAAAATCCTTGGGTTCTAACCTGTTGCCT (site GAAAGTCCTAG)	0.0177
GAAAATCCTTGGGTTCTAACCTGTTGCCT (site GAAATTCCTAG)	0.297

Sequence	recombinant barcode read abundance (log10)
GAAACGGCTTGGGTTCTAACCTGTTGCCT (site GAAAAGGCTAG)	0.0884
GAAACGGCTTGGGTTCTAACCTGTTGCCT (site GAAACGGCTAG)	0.091
GAAACGGCTTGGGTTCTAACCTGTTGCCT (site GAAAGGGCTAG)	0.0962
GAAACGGCTTGGGTTCTAACCTGTTGCCT (site GAAATGGCTAG)	0.323
GAAAGTTCTTGGGTTCTAACCTGTTGCCT (site GAAAGTTCTAG)	1.15
GAAAGTTCTTGGGTTCTAACCTGTTGCCT (site GCAAGTTCTAG)	0.0711
GAAAGTTCTTGGGTTCTAACCTGTTGCCT (site GGAAGTTCTAG)	0.109
GAAAGTTCTTGGGTTCTAACCTGTTGCCT (site GTAAGTTCTAG)	0.153
GAAATGGCTTGGGTTCTAACCTGTTGCCT (site GAAAAGGCTAG)	0.0553
GAAATGGCTTGGGTTCTAACCTGTTGCCT (site GAAACGGCTAG)	0.237
GAAATGGCTTGGGTTCTAACCTGTTGCCT (site GAAAGGGCTAG)	0.108
GAAATGGCTTGGGTTCTAACCTGTTGCCT (site GAAATGGCTAG)	0.309
GAACACACTTGGGTTCTAACCTGTTGCCG (site GAACACACTCG)	1.56
GAACACACTTGGGTTCTAACCTGTTGCCG (site GCACACACTCA)	0.794
GAACACTCTTGGGTTCTAACCTGTTGCTG (site GAACACTCTCA)	2.09
GAACACTCTTGGGTTCTAACCTGTTGCTG (site TAACACTCTAA)	0.113
GAACCTACTTGGGTTCTAACCTGTTGCCA (site GAACCTACTTG)	1.16
GAACCTACTTGGGTTCTAACCTGTTGCCA (site GGACCTACTTG)	0.0691
GAACTGCCTTGGGTTCTAACCTGTTGCTT (site CCTGACTCTGT)	0.00853
GAACTGCCTTGGGTTCTAACCTGTTGCTT (site GAACTGCCTAA)	1.35
GAAGAGTCTTGGGTTCTAACCTGTTGCCT (site GAAGAGTCTAG)	2.11
GAAGAGTCTTGGGTTCTAACCTGTTGCCT (site GCAGAGTCTAG)	0.0703

Sequence	recombinant barcode read abundance (log10)
GAAGAGTCTTGGGTTCTAACCTGTTGCCT (site GGAGAGTCTAG)	0.233
GAAGAGTCTTGGGTTCTAACCTGTTGCCT (site GTAGAGTCTAG)	1.29
GAAGCGCCTTGGGTTCTAACCTGTTGCCT (site GAAGAGCCTAG)	0.0683
GAAGCGCCTTGGGTTCTAACCTGTTGCCT (site GAAGCGCCTAG)	1.42
GAAGCGCCTTGGGTTCTAACCTGTTGCCT (site GAAGGGCCTAG)	0.0832
GAAGCGCCTTGGGTTCTAACCTGTTGCCT (site GAAGTGCCTAG)	0.397
GAAGCTACTTGGGTTCTAACCTGTTGCGT (site GAAGCTACTAC)	1.84
GAAGCTACTTGGGTTCTAACCTGTTGCGT (site GATGCTACTCC)	0.0227
GAATCAACTTGGGTTCTAACCTGTTGCTT (site GAATCAACTAA)	0.0878
GAATCAACTTGGGTTCTAACCTGTTGCTT (site GACTCGACTAA)	0.119
GAATGTTCTTGGGTTCTAACCTGTTGCTT (site GAATATTCTAA)	0.0132
GAATGTTCTTGGGTTCTAACCTGTTGCTT (site GAATGTTCTAA)	0.402
GAATTAGCTTGGGTTCTAACCTGTTGCGG (site GAATTAGCTCC)	1.71
GAATTAGCTTGGGTTCTAACCTGTTGCGG (site GTATTAGCTCG)	0.287
GACAGACCTTGGGTTCTAACCTGTTGCCT (site AACAGACCTAG)	0.83
GACAGACCTTGGGTTCTAACCTGTTGCCT (site CACAGACCTAG)	0.193
GACAGACCTTGGGTTCTAACCTGTTGCCT (site GACAGACCTAG)	1.72
GACAGACCTTGGGTTCTAACCTGTTGCCT (site TACAGACCTAG)	0.425
GACAGCCCTTGGGTTCTAACCTGTTGCTG (site GACAGCCCTCA)	0.991
GACAGCCCTTGGGTTCTAACCTGTTGCTG (site GTCAGCCCTCA)	0.0582
